Measured values published in US20050014780A1, “Process for preparing 5-sulfonamido-8-hydroxy-1,6-naphthyridine-7-carboxamides” (priority 2001, published 2005).

Legend:
[1] = target: recombinant integrase (HIV integrase) (Human immunodeficiency virus type 1 group M subtype B, UniProt P04585)
From the text: The present invention includes the preparation of naphthyridine carboxamides of Formula (VIII) by the process set forth above in the Summary of the Invention. […] The strand transfer assay is described in Example 193 of WO 02/30930.

[2] = oral absorption and pharmacokinetics in animal models; format: in vivo; conditions: compared to Compound 15 per se

Row | SMILES | HIV integrase inhibition (in words) [1] | oral absorption [2] | pharmacokinetics [2]
1 | O=C(NCc1ccc(F)cc1)c1nc(N2CCCCS2(=O)=O)c2cccnc2c1O [Compound 15, 5-(1,1-dioxido-1,2-thiazinan-2-yl)-N-(4-fluorobenzyl)-8-hydroxy-1,6-naphthyridine-7-carboxamide] | potent HIV integrase inhibitor |  | 
2 | O=C(NCc1ccc(F)cc1)c1nc(N2CCCCS2(=O)=O)c2cccnc2c1[O-].[Na+] [Na salt of Compound 15, Sodium salt of 5-(1,1-Dioxido-1,2-thiazinan-2-yl)-N-(4-fluorobenzyl)-8-hydroxy-1,6-naphthyridine-7-carboxamide] |  | superior oral absorption | improved pharmacokinetics
